According to patent US20100152200A1, “[…] USES THEREOF” (priority 2008, published 2010):
Where two headings read alike, the source gives them in different places.

What was measured:
FMV [1] = format: cell-based, Fort Morgan virus (FMV) strain CM4-146
FMV [2] = format: cell-based, Fort Morgan virus (FMV) strain CM4-146; remark: listed apart in the source
BSR-T7/5 cells = assay: Toxicity studies (MTT or Alamar Blue cell viability) in the pWR-LUC:BSR-T7/5 system; conditions: for toxicity:activity (T:A) ratio (CC50/IC1050): pWR-LUC:BSR-T7/5 system
SINV = conditions: 12.5 µM
WEEV = format: cell-based, WEEV strain Cba87
VEEV replicon = format: cell-based
WEEV replicon pWR-LUC = assay: organism not typed; format: cell-based
EEEV replicon = format: cell-based
FMV [3] = system: FMV

Row | SMILES | suppression of infectious FMV production (FMV [1]) [%] | reduction of accumulation of viral RNAs encoding nsP2 or E1 (FMV [2]) | cytotoxicity (in words) (BSR-T7/5 cells; FIG. 2 dose-response, BSR-T7/5 cells transfected with pWR-LUC) | toxicity:activity (T:A) ratio (CC50/IC1050) (BSR-T7/5 cells) | cell viability of SINV-infected cells (SINV) [%] | reduction of accumulation of viral RNAs encoding nsP2 or E1 (WEEV) | activity against VEEV replicon (in words) (VEEV replicon) | IC50 (WEEV replicon pWR-LUC; read-out: IC50) [µM] | activity against EEEV replicon (in words) (EEEV replicon) | concentration effectively suppressing FMV-induced CPE (lowest concentration tested) (FMV [3]) [µM] | cell viability of FMV-infected cells (FMV [3]; 12.5 µM) [%] | suppression of fLUC expression (WEEV replicon pWR-LUC) | IC50 (WEEV replicon pWR-LUC; BSR-T7/5) [µM]
1 | O=C(NCc1ccco1)C1CCN(C(=O)c2cc3sccc3n2Cc2ccc(F)cc2)CC1 [Compound 32091] | > 90 | 80-90% | minimal cytotoxicity | greater than 20 | 50 | 80-90% | broad activity | 9.3 | broad activity | ≤ 3 | 70 |  | 
2 | NC(=O)c1ncn([C@@H]2O[C@H](CO)[C@@H](O)[C@H]2O)n1 [ribavirin] |  |  |  | 19 |  |  |  |  |  |  |  | approximately 80% | 16
3 | COc1c(C)c2c(c(O)c1C/C=C(\C)CCC(=O)O)C(=O)OC2 [mycophenolic acid] |  |  |  |  |  |  |  |  |  |  |  | approximately 80% | 
